Reference: patent US7348427B2, “Antipathogenic benzamide compounds” (Genesoft Pharmaceuticals, Inc., priority 2001, dated 2008)

Experiments:
[1] = test system: Candida albicans (ATCC 38247); experiment: Antifungal MIC assay; format: cell-based; details: B = C. albicans ATCC 38247
Text: (§1) In vitro biological activity data were collected for a variety of microorganisms, including Bacillus cereus (ATCC 11778), Staphylococcus aureus (ATCC 27660, a methicillin resistant strain (MRSA); ATCC 13709, a methicillin sensitive strain (MSSA)); Streptococcus pneumoniae (ATCC 51422, a penicillin resistant strain (PRSP)), Enterococcus faecium (ATCC 51559, a vancomycin resistant strain (VRE)), and Staphylococcus epidermidis (ATCC 12228). Additionally, antifungal activity data were collected for Candida albicans (ATCC 38247).
(§2) Compounds according to this invention were screened for their in vitro activities against selected species of bacteria and fungi. The minimal inhibition concentration (MIC) of these compounds was determined using the National Committee for Clinical Laboratory Standards (NCCLS) broth microdilution assay in microtiter plates, as set forth in: (1) the guidelines of the National. Committee for Clinical Laboratory Standards (NCCLS) Document M7-A4 (NCCLS, 1997); (2) the guidelines of the National Committee for Clinical Laboratory Standards (NCCLS) Document M11-A4 (NCCLS, 1997); and (3) the guidelines and reference method of the National Committee for Clinical Laboratory Standards (NCCLS) Document M27-T (NCCLS, 1995). For antifungal assays, the method recommended in Murray, P R., 1995 Manual of Clinical Microbiology (ASM Press, Washington, D.C.), was employed.

[2] = test system: Staphylococcus aureus (ATCC 13709, a methicillin sensitive strain (MSSA)); experiment: MIC, NCCLS broth microdilution assay; format: cell-based; details: E = S. aureus ATCC 13709
Text: as §1, §2

[3] = test system: Staphylococcus aureus (ATCC 27660, a methicillin resistant strain (MRSA)); experiment: MIC, NCCLS broth microdilution assay; format: cell-based; details: F = S. aureus ATCC 27660
Text: as §1, §2

[4] = test system: Bacillus cereus (ATCC 11778); experiment: MIC, NCCLS broth microdilution assay; format: cell-based; details: A = B. cereus ATCC 11778
Text: as §1, §2

E. faecalis ATCC 29212 = experiment: MIC, NCCLS broth microdilution assay; format: cell-based, Enterococcus faecalis; details: C = E. faecalis ATCC 29212
Procedure: as §2

S. pneumoniae ATCC 49619 = experiment: MIC, NCCLS broth microdilution assay; format: cell-based, Streptococcus pneumoniae; details: H = S. pneumoniae ATCC 49619
Procedure: as §2

SMILES	Minimum Inhibitory Concentration (MIC) [1]	Minimum Inhibitory Concentration (MIC) [2]	Minimum Inhibitory Concentration (MIC) [3]	Minimum Inhibitory Concentration (MIC) [4]	Minimum Inhibitory Concentration (MIC) (E. faecalis ATCC 29212)	Minimum Inhibitory Concentration (MIC) (S. pneumoniae ATCC 49619)
CCN(CC)CCNC(=O)c1cc(NC(=O)c2cc(NC(=O)c3ccc(F)cc3F)cn2C)cn1C [Compound B-13]	>32 µg/mL	++ (++ = 4 < MIC < 12)	+ (+ = 12 ≦ MIC ≦ 32)	+ (+ = 12 ≦ MIC ≦ 32)	++ (++ = 4 < MIC < 12)	+++ (+++ = MIC ≦ 4)
Cn1cc(NC(=O)c2cc(NC(=O)c3ccc(F)cc3F)cn2C)cc1C(=O)NCCN1CCCCC1 [Compound B-14]	>32 µg/mL	+++ (+++ = MIC ≦ 4)	+++ (+++ = MIC ≦ 4)	++ (++ = 4 < MIC < 12)	+++ (+++ = MIC ≦ 4)	+++ (+++ = MIC ≦ 4)
CN(C)CC(C)(C)CNC(=O)c1cc(NC(=O)c2cc(NC(=O)c3ccc(F)cc3F)cn2C)cn1C [Compound B-15]	>32 µg/mL	>32 µg/mL	>32 µg/mL	>32 µg/mL	>32 µg/mL	+ (+ = 12 ≦ MIC ≦ 32)
Cn1cc(NC(=O)c2cc(NC(=O)c3ccc(F)cc3F)cn2C)cc1C(=O)NCCN1CCCC1 [Compound B-16]	>32 µg/mL	++ (++ = 4 < MIC < 12)	++ (++ = 4 < MIC < 12)	++ (++ = 4 < MIC < 12)	+++ (+++ = MIC ≦ 4)	+++ (+++ = MIC ≦ 4)
Cn1cc(NC(=O)c2cc(NC(=O)c3cc(NC(=O)c4ccc(F)cc4F)cn3C)cn2C)cc1C(=O)NCCc1cccc[n+]1C [Compound B-17]	>32 µg/mL	++ (++ = 4 < MIC < 12)	++ (++ = 4 < MIC < 12)	+++ (+++ = MIC ≦ 4)	+ (+ = 12 ≦ MIC ≦ 32)	++ (++ = 4 < MIC < 12)
Cn1cc(NC(=O)c2cc(NC(=O)c3cc(NC(=O)c4ccc(F)cc4F)cn3C)cn2C)cc1C(=O)NCCN1CCC(O)CC1 [Compound B-19]	>32 µg/mL	+++ (+++ = MIC ≦ 4)	+++ (+++ = MIC ≦ 4)	+++ (+++ = MIC ≦ 4)	+++ (+++ = MIC ≦ 4)	+++ (+++ = MIC ≦ 4)
C[C@@H]1CCC[C@H](C)N1CCNC(=O)c1cc(NC(=O)c2cc(NC(=O)c3cc(NC(=O)c4ccc(F)cc4F)cn3C)cn2C)cn1C [Compound B-20]	>32 µg/mL	+++ (+++ = MIC ≦ 4)	++ (++ = 4 < MIC < 12)	+++ (+++ = MIC ≦ 4)	+ (+ = 12 ≦ MIC ≦ 32)	+++ (+++ = MIC ≦ 4)
Cn1cc(NC(=O)c2cc(NC(=O)c3cc(NC(=O)c4ccc(F)cc4F)cn3C)cn2C)cc1C(=O)NCCN [Compound B-21]	+ (+ = 12 ≦ MIC ≦ 32)	+ (+ = 12 ≦ MIC ≦ 32)	++ (++ = 4 < MIC < 12)	+ (+ = 12 ≦ MIC ≦ 32)	++ (++ = 4 < MIC < 12)	++ (++ = 4 < MIC < 12)
Cn1cc(NC(=O)c2cc(NC(=O)c3cc(NC(=O)c4ccc(F)cc4F)cn3C)cn2C)cc1C(=O)NCCNC(=N)N [Compound B-23]	++ (++ = 4 < MIC < 12)	+++ (+++ = MIC ≦ 4)	+++ (+++ = MIC ≦ 4)	+++ (+++ = MIC ≦ 4)	+++ (+++ = MIC ≦ 4)	+++ (+++ = MIC ≦ 4)
Cn1cc(NC(=O)c2cc(NC(=O)c3cc(NC(=O)c4ccc(F)cc4F)cn3C)cn2C)cc1C(=O)NCCN(CCO)CCO [Compound B-25]	>32 µg/mL	+ (+ = 12 ≦ MIC ≦ 32)	+ (+ = 12 ≦ MIC ≦ 32)	+ (+ = 12 ≦ MIC ≦ 32)	+ (+ = 12 ≦ MIC ≦ 32)	+++ (+++ = MIC ≦ 4)
Cn1cc(NC(=O)c2cc(NC(=O)c3cc(NC(=O)c4ccc(F)cc4F)cn3C)cn2C)cc1C(=O)NCCN1CCNCC1 [Compound B-28]	>32 µg/mL	+ (+ = 12 ≦ MIC ≦ 32)	+ (+ = 12 ≦ MIC ≦ 32)	+ (+ = 12 ≦ MIC ≦ 32)	+ (+ = 12 ≦ MIC ≦ 32)	+++ (+++ = MIC ≦ 4)
Cn1cc(NC(=O)c2cc(NC(=O)c3cc(NC(=O)c4ccc(F)cc4F)cn3C)cn2C)cc1C(=O)NCCN1CCC(F)CC1 [Compound B-29]	+ (+ = 12 ≦ MIC ≦ 32)	+++ (+++ = MIC ≦ 4)	+++ (+++ = MIC ≦ 4)	+++ (+++ = MIC ≦ 4)	+++ (+++ = MIC ≦ 4)	+++ (+++ = MIC ≦ 4)
Cn1cc(NC(=O)c2cc(NC(=O)c3cc(NC(=O)c4ccc(F)cc4F)cn3C)cn2C)cc1C(=O)NCC[N+]1(C)CCOCC1 [Compound B-30]	+ (+ = 12 ≦ MIC ≦ 32)	+++ (+++ = MIC ≦ 4)	+++ (+++ = MIC ≦ 4)	+++ (+++ = MIC ≦ 4)	>32 µg/mL	+++ (+++ = MIC ≦ 4)
Cn1cc(NC(=O)c2cc(NC(=O)c3cc(NC(=O)c4ccc(F)cc4)cn3C)cn2C)cc1C(=O)NCCN1CCOCC1 [Compound B-32]	>32 µg/mL	++ (++ = 4 < MIC < 12)	+ (+ = 12 ≦ MIC ≦ 32)	+ (+ = 12 ≦ MIC ≦ 32)	++ (++ = 4 < MIC < 12)	++ (++ = 4 < MIC < 12)
Cn1cc(NC(=O)c2cc(NC(=O)c3ccc(F)cc3)cn2C)cc1C(=O)NCCN1CCSCC1 [Compound B-33]	>32 µg/mL	++ (++ = 4 < MIC < 12)	+ (+ = 12 ≦ MIC ≦ 32)	+ (+ = 12 ≦ MIC ≦ 32)	++ (++ = 4 < MIC < 12)	+++ (+++ = MIC ≦ 4)
Cn1cc(NC(=O)c2cc(NC(=O)c3cc(NC(=O)c4ccc(F)cc4)cn3C)cn2C)cc1C(=O)NCCN1CCSCC1 [Compound B-34]	>32 µg/mL	+++ (+++ = MIC ≦ 4)	+++ (+++ = MIC ≦ 4)	+++ (+++ = MIC ≦ 4)	+++ (+++ = MIC ≦ 4)	+++ (+++ = MIC ≦ 4)
Cn1cc(NC(=O)c2cc(NC(=O)c3cc(NC(=O)c4cc(NC(=O)c5ccc(F)cc5)cn4C)cn3C)cn2C)cc1C(=O)NCCN1CCSCC1 [Compound B-35]	>32 µg/mL	+++ (+++ = MIC ≦ 4)	+++ (+++ = MIC ≦ 4)	+++ (+++ = MIC ≦ 4)	+++ (+++ = MIC ≦ 4)	+++ (+++ = MIC ≦ 4)
Cn1cc(NC(=O)c2cc(NC(=O)c3cc(NC(=O)c4cc(NC(=O)c5ccc(F)cc5)cn4C)cn3C)cn2C)cc1C(=O)NCCN1CCOCC1 [Compound B-37]	>32 µg/mL	+++ (+++ = MIC ≦ 4)	>32 µg/mL	+++ (+++ = MIC ≦ 4)	+++ (+++ = MIC ≦ 4)	+++ (+++ = MIC ≦ 4)
Cn1cc(NC(=O)c2cc(NC(=O)c3cc(NC(=O)c4ccccc4F)cn3C)cn2C)cc1C(=O)NCCN1CCOCC1 [Compound B-39]	>32 µg/mL	+++ (+++ = MIC ≦ 4)	++ (++ = 4 < MIC < 12)	+++ (+++ = MIC ≦ 4)	+++ (+++ = MIC ≦ 4)	+++ (+++ = MIC ≦ 4)
